Results published in PubChem BioAssay (NCI).
Values joined by “and” are separate entries in the source; they are usually repeats but may differ in a detail not shown here. Identical values can stand only once.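 96-well plates; 48 h exposure; 5 concentrations. Endpoints by linear interpolation between flanking doses. Not reached: highest tested concentration assigned. The concentration for 50% growth inhibition is given as GI50. TGI: total growth inhibition.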 Numbered stars: 1 amine (or outer) side, 2 acyl side, 3 side chain; on linkers, the order of the positions; unused ones are H or OH. Bridge positions count the residues as written; N and C are the ends. Square brackets hold non-standard residues; d marks the D form. Peptide text beside a SMILES is read from it. I, II: the chains in the order shown. Actinocin(1to9) = Cc1c2oc3c(C)ccc(C(=O)[*:2])c3nc-2c(C(=O)[*:1])c(N)c1=O; NMeY = CN[CH](Cc1ccc(O)cc1)C(=O)O; Sar = CNCC(=O)O

What was measured:
Test in all cases: NCI anticancer screen, dose series, 48 h
[1] = test system: IGROV1 ovarian
[2] = test system: SK-MEL-2 melanoma
[3] = test system: SNB-75 CNS
[4] = test system: OVCAR-4 ovarian
[5] = test system: COLO 205 colon
[6] = test system: CCRF-CEM leukemia
[7] = test system: SF-295 CNS
[8] = test system: MOLT-4 leukemia
[9] = test system: HCT-15 colon
[10] = test system: K-562 leukemia
[11] = test system: RPMI-8226 leukemia
[12] = test system: SN12C renal
[13] = test system: BT-549 breast
[14] = test system: 786-0 renal
[15] = test system: EKVX NSCLC
[16] = test system: ACHN renal
[17] = test system: HCT-116 colon
[18] = test system: RXF 393 renal
[19] = test system: NCI/ADR-RES ovarian
[20] = test system: HT29 colon
[21] = test system: NCI-H460 lung
[22] = test system: HL-60(TB) leukemia
[23] = test system: MCF7 breast
[24] = test system: SK-OV-3 ovarian
[25] = test system: M14 melanoma
[26] = test system: U251 CNS
[27] = test system: A549 NSCLC
[28] = test system: SR leukemia
[29] = test system: SNB-19 CNS
[30] = test system: HS 578T breast
[31] = test system: CAKI-1 renal
[32] = test system: TK-10 renal
[33] = test system: OVCAR-5 ovarian
[34] = test system: LOX IMVI melanoma
[35] = test system: NCI-H522 lung
[36] = test system: HOP-92 NSCLC
[37] = test system: NCI-H226 lung
[38] = test system: SF-268 CNS
[39] = test system: MDA-N

## COc1ccc(CC2C(=O)OC(C)C(NC(=O)c3c4nc5c(C(=O)NC6C(=O)NC(C(C)C)C(=O)N7CCCC7C(=O)N(C)CC(=O)N(C)C(Cc7ccc(OC)cc7)C(=O)OC6C)ccc(C)c5oc-4c(C)c(=O)c3N)C(=O)NC(C(C)C)C(=O)N3CCCC3C(=O)N(C)CC(=O)N2C)cc1 (stereo not given) (I: TVP[Sar][NMeY](Me) / II: TVP[Sar][NMeY](Me); ester I:1-I:C, II:1-II:C; linker I:N-II:N via Actinocin(1to9); configuration not given here)
[1]
  GI50: < 10 nM and 3.27 nM
[2]
  GI50: < 10 nM and 22.8 nM
[3]
  TGI: 158 nM
[4]
  TGI: < 10 nM
[5]
  GI50: 4.98 nM
  TGI: 113 nM
[6]
  GI50: < 10 nM and 1.03 nM
  TGI: < 10 nM and 62.5 nM
[7]
  TGI: 280 nM
[8]
  GI50: 1.52 nM
[9]
  TGI: > 1000 nM
[10]
  GI50: < 10 nM and 3.9 nM
  TGI: < 10 nM
[11]
  TGI: < 10 nM
[12]
  TGI: > 1000 nM
[13]
  TGI: 246 nM
[14]
  GI50: < 33.3 nM and 6.94 nM
  TGI: > 1000 nM
[15]
  GI50: < 10 nM and 69.6 nM
  TGI: 73.4 nM and > 617 nM
[16]
  TGI: > 591 nM
[17]
  GI50: < 10 nM and 2.98 nM
  TGI: 1120 nM and > 1000 nM
[18]
  GI50: < 10 nM and 30.6 nM
[19]
  GI50: 90.1 nM and > 863 nM
  TGI: 11500 nM and > 1000 nM
[20]
  GI50: < 10 nM and 2.75 nM
[21]
  GI50: < 10 nM
  TGI: < 10 nM
[22]
  GI50: 1.54 nM
  TGI: 51.5 nM
[23]
  GI50: < 10 nM and 3 nM
  TGI: 1290 nM and > 1000 nM
[24]
  GI50: < 10 nM and 58.2 nM
[25]
  GI50: < 10 nM and 66.5 nM
[26]
  GI50: 1.89 nM
  TGI: > 1000 nM
[27]
  TGI: 290 nM and > 1000 nM
[28]
  GI50: 0.646 nM
  TGI: > 374 nM
[29]
  TGI: 1550 nM and > 804 nM
[30]
  GI50: < 10 nM and 3.87 nM
  TGI: < 10 nM and 41.1 nM
[31]
  GI50: < 10 nM and 36.3 nM
  TGI: 734 nM
[32]
  TGI: 2690 nM and 969 nM
[33]
  GI50: < 10 nM and 84.1 nM
  TGI: > 651 nM
[34]
  GI50: < 10 nM and 4.23 nM
[35]
  GI50: 2.64 nM
  TGI: 18 nM
[36]
  GI50: < 10 nM and 35 nM
[37]
  TGI: > 213 nM
[38]
  GI50: < 10 nM and 4.84 nM
[39]
  TGI: 218 nM
